Target: T1, h-NAAA (Homo sapiens, UniProt Q02083)
T1 construct: made in house; host or cells: HEK-293 cells stably overexpressing human NAAA; enzyme-enriched (lysosomal) lysate
T1 sequence (Q02083 29-125 limits assumed): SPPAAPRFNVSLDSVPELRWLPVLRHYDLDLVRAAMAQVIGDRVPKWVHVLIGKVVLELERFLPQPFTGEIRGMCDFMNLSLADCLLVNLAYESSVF
T1 sequence (Q02083 126-359 limits assumed): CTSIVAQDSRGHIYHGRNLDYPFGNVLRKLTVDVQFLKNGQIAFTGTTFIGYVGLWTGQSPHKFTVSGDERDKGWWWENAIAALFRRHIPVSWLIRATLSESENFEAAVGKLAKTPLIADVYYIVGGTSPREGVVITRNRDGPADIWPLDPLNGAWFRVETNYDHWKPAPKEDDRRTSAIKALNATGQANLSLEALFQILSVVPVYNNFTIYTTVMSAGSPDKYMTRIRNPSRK
Test: Fluorogenic human-NAAA assay (h-NAAA, fluo.)
Assay type: biochemical
Conditions: for IC50: mean ± SD (n ≥ 3), n.a.: not active @50 μM (<10% inhibition)
Protocol: Human recombinant proteins were obtained from HEK-293 stable overexpressing human NAAA, AC, and FAAH-1 cell lines, respectively. Cells were grown in Dulbecco’s modified Eagle medium (DMEM) containing 10% FBS, 1% glutamine, 1 mM sodium pyruvate, and 500 μg/mL geneticin (G418). To obtain a high-density cell proliferation, h-NAAA-HEK-293 cells were grown in BelloCell-500 bottle, a compact bioreactor. On the contrary, h-AC and h-FAAH-1-HEK-293 cells were grown in 150 mm dishes and scraped off with cold PBS 1× pH 7.4 at 80% confluence. Cell pellets were collected and stored at −80 °C until protein preparation.
HEK-293 cells stably transfected with the human NAAA or human AC coding sequences were used as the enzyme source. Cells were suspended in 20 mM Tris-HCl (pH 7.4) with 0.32 M sucrose, sonicated, and centrifuged at 800g for 30 min at 4 °C. Supernatants were then centrifuged at 12,000g for 30 min at 4 °C. Pellets were resuspended in PBS buffer (pH 7.4) and subjected to three freeze-thaw cycles at −80 °C. The suspension was finally centrifuged at 105,000g for 1 h at 4 °C, supernatants were collected, protein concentration was measured, and samples were aliquoted and stored at −80 °C until use.
The assay was run in 96-well microplates (Black OptiPlate-96 F; PerkinElmer, Massachusetts, USA), in a total reaction volume of 200 μL. h-NAAA protein preparation (4 μg) was preincubated for 30 min with various concentrations of test compounds or vehicle control (DMSO 5%) in 100 mM citrate/phosphate buffer (pH 4.5) containing 3.0 mM DTT, 0.1% NP40, 0.05% BSA, and 150 mM NaCl. The background (no activity) samples were prepared using assay buffer without h-NAAA and DMSO (5%). N-(4-methyl-2-oxo-chromen-7-yl)-hexadecanamide (PAMCA)[60] was used as a substrate (2 μM) and the reaction was carried out for 50 min at 37 °C. Fluorescence was measured with EnVision 2014 Multilabel Reader (PerkinElmer, Massachusetts, USA) using an excitation wavelength of 355 nm and an emission of 460 nm. IC50 values were calculated by non-linear regression analysis of log[concentration]/response curves generated with mean replicate values using a four-parameter Hill equation curve fitting with GraphPad Prism 5 (GraphPad Software Inc., CA, USA).

Structure (SMILES)	IC50 (h-NAAA (fluo.))	h-NAAA inhibitory activity, in words (h-NAAA (fluo.))	further results
Cc1n[nH]c(C)c1S(=O)(=O)N1CCC(Oc2cnccn2)CC1 [Compound 1, 2-((1-((3,5-Dimethyl-1H-pyrazol-4-yl)sulfonyl)piperidin-4-yl)oxy)pyrazine]	1.09 ± 0.163 µM	–	LipE (LipE = pIC50 – c Log P (h-NAAA)): 6.3; pIC50 (Table S1, h-NAAA (fluo.)): 5.96
Cc1n[nH]cc1S(=O)(=O)N1CCC(Oc2cnccn2)CC1 [Compound 2, 2-((1-((3-Methyl-1H-pyrazol-4-yl)sulfonyl)piperidin-4-yl)oxy)pyrazine]	–	devoid of any activity	–
O=S(=O)(c1cn[nH]c1)N1CCC(Oc2cnccn2)CC1 [Compound 3, 2-((1-((1H-Pyrazol-4-yl)sulfonyl)piperidin-4-yl)oxy)pyrazine]	–	devoid of any activity	–
Cc1nn(C)c(C)c1S(=O)(=O)N1CCC(Oc2cnccn2)CC1 [Compound 4, 2-((1-((1,3,5-Trimethyl-1H-pyrazol-4-yl)sulfonyl)piperidin-4-yl)oxy)pyrazine]	–	complete loss of inhibitory effect	–
Cc1noc(C)c1S(=O)(=O)N1CCC(Oc2cnccn2)CC1 [Compound 5, 3,5-Dimethyl-4-((4-(pyrazin-2-yloxy)piperidin-1-yl)sulfonyl)isoxazole]	–	complete loss of inhibitory effect	–
Cc1cnn(C)c1S(=O)(=O)N1CCC(Oc2cnccn2)CC1 [Compound 6, 2-((1-((1,4-Dimethyl-1H-pyrazol-5-yl)sulfonyl)piperidin-4-yl)oxy)pyrazine]	–	complete loss of inhibitory effect	–
Cc1cccc(C)c1S(=O)(=O)N1CCC(Oc2cnccn2)CC1 [Compound 7, 2-((1-((2,6-Dimethylphenyl)sulfonyl)piperidin-4-yl)oxy)pyrazine]	4.48 ± 0.94 µM	–	–
CCc1n[nH]c(C)c1S(=O)(=O)N1CCC(Oc2cnccn2)CC1 [Compound 8, 2-((1-((3-Ethyl-5-methyl-1H-pyrazol-4-yl)sulfonyl)piperidin-4-yl)oxy)pyrazine]	0.62 ± 0.12 µM	–	–
CCCc1n[nH]c(C)c1S(=O)(=O)N1CCC(Oc2cnccn2)CC1 [Compound 9, 2-((1-((5-Methyl-3-propyl-1H-pyrazol-4-yl)sulfonyl)piperidin-4-yl)oxy)pyrazine]	0.33 ± 0.04 µM	–	–
CCCCc1n[nH]c(C)c1S(=O)(=O)N1CCC(Oc2cnccn2)CC1 [Compound 10, 2-((1-((3-Butyl-5-methyl-1H-pyrazol-4-yl)sulfonyl)piperidin-4-yl)oxy)pyrazine]	0.91 ± 0.13 µM	–	–
Cc1[nH]nc(C(C)C)c1S(=O)(=O)N1CCC(Oc2cnccn2)CC1 [Compound 11, 2-((1-((3-isoPropyl-5-methyl-1H-pyrazol-4-yl)sulfonyl)piperidin-4-yl)oxy)pyrazine]	0.64 ± 0.14 µM	–	–
Cc1[nH]nc(C(C)(C)C)c1S(=O)(=O)N1CCC(Oc2cnccn2)CC1 [Compound 12, 2-((1-((3-(tert-Butyl)-5-methyl-1H-pyrazol-4-yl)sulfonyl)piperidin-4-yl)oxy)pyrazine]	0.78 ± 0.12 µM	–	–
COc1n[nH]c(C)c1S(=O)(=O)N1CCC(Oc2cnccn2)CC1 [Compound 13, 2-((1-((3-Methoxy-5-methyl-1H-pyrazol-4-yl)sulfonyl)piperidin-4-yl)oxy)pyrazine]	–	no detectable activity	–
Cc1[nH]nc(C(F)(F)F)c1S(=O)(=O)N1CCC(Oc2cnccn2)CC1 [Compound 14, 2-((1-((5-Methyl-3-(trifluoromethyl)-1H-pyrazol-4-yl)sulfonyl)piperidin-4-yl)oxy)pyrazine]	3.29 ± 0.23 µM	–	–
CCc1n[nH]c(CC)c1S(=O)(=O)N1CCC(Oc2cnccn2)CC1 [Compound 15, 2-((1-((3,5-Diethyl-1H-pyrazol-4-yl)sulfonyl)piperidin-4-yl)oxy)pyrazine]	1.11 ± 0.31 µM	–	–
Cc1n[nH]c(C)c1C(=O)N1CCC(Oc2cnccn2)CC1 [Compound 16, (3,5-Dimethyl-1H-pyrazol-4-yl)(4-(pyrazin-2-yloxy)piperidin-1-yl)methanone]	–	complete loss of activity	–
Cc1n[nH]c(C)c1S(=O)(=O)N1CC(Oc2cnccn2)C1 [Compound 18, 2-((1-((3,5-Dimethyl-1H-pyrazol-4-yl)sulfonyl)azetidin-3-yl)oxy)pyrazine]	–	complete loss of enzyme inhibition	–
Cc1n[nH]c(C)c1S(=O)(=O)N(C)CCCOc1cnccn1 [Compound 19, N,3,5-Trimethyl-N-(3-(pyrazin-2-yloxy)propyl)-1H-pyrazole-4-Sulfonamide]	4.29 ± 0.97 µM	–	–
Cc1n[nH]c(C)c1S(=O)(=O)N1[C@@H]2CC[C@H]1C[C@@H](Oc1cnccn1)C2 [Compound 20, (1R,3r,5S)-8-((3,5-Dimethyl-1H-pyrazol-4-yl)sulfonyl)-3-(pyrazin-2-yloxy)-8-azabicyclo[3.2.1]octane]	0.23 ± 0.01 µM	–	–
Cc1n[nH]c(C)c1S(=O)(=O)N1[C@@H]2CC[C@H]1C[C@H](Oc1cnccn1)C2 [Compound 21, (1R,3s,5S)-8-((3,5-Dimethyl-1H-pyrazol-4-yl)sulfonyl)-3-(pyrazin-2-yloxy)-8-azabicyclo[3.2.1]octane]	–	devoid of any activity	–
Cc1n[nH]c(C)c1S(=O)(=O)N1CCC(Nc2cnccn2)CC1 [Compound 22, N-(1-((3,5-Dimethyl-1H-pyrazol-4-yl)sulfonyl)piperidin-4-yl)pyrazin-2-amine]	–	abolished the inhibitory activity	–
Cc1n[nH]c(C)c1S(=O)(=O)N1CCC(Cc2cnccn2)CC1 [Compound 23, 2-((1-((3,5-Dimethyl-1H-pyrazol-4-yl)sulfonyl)piperidin-4-yl)methyl)pyrazine]	–	abolished the inhibitory activity	–
Cc1n[nH]c(C)c1S(=O)(=O)N1CCC(c2cnccn2)CC1 [Compound 24, 2-(1-((3,5-Dimethyl-1H-pyrazol-4-yl)sulfonyl)piperidin-4-yl)pyrazine]	–	abolished the inhibitory activity	–
Cc1n[nH]c(C)c1S(=O)(=O)N1[C@@H]2CCC[C@H]1C[C@@H](Oc1cnccn1)C2 [Compound 25, (1R,3r,5S)-9-((3,5-Dimethyl-1H-pyrazol-4-yl)sulfonyl)-3-(pyrazin-2-yloxy)-9-azabicyclo[3.3.1]nonane]	0.37 ± 0.03 µM	–	–
Cc1n[nH]c(C)c1S(=O)(=O)N1[C@@H]2COC[C@H]1C[C@@H](Oc1cnccn1)C2 [Compound 26, (1R,5S,7s)-9-((3,5-Dimethyl-1H-pyrazol-4-yl)sulfonyl)-7-(pyrazin-2-yloxy)-3-oxa-9-azabicyclo[3.3.1]nonane]	2.33 ± 0.83 µM	–	–
Cc1n[nH]c(C)c1S(=O)(=O)N1C[C@H]2CC[C@@H](C1)[C@H]2Oc1cnccn1 [Compound 27, (1R,5S,8r)-3-((3,5-Dimethyl-1H-pyrazol-4-yl)sulfonyl)-8-(pyrazin-2-yloxy)-3-azabicyclo[3.2.1]octane]	15.4 ± 3.26 µM	–	–
Cc1n[nH]c(C)c1S(=O)(=O)N1C[C@H]2CCC[C@@H](C1)[C@H]2Oc1cnccn1 [Compound 28, (1R,5S,9r)-3-((3,5-Dimethyl-1H-pyrazol-4-yl)sulfonyl)-9-(pyrazin-2-yloxy)-3-azabicyclo[3.3.1]nonane]	–	inactive	–
Cc1n[nH]c(C)c1S(=O)(=O)N1C[C@H]2CCC[C@@H](C1)[C@@H]2Oc1cnccn1 [Compound 29, (1R,5S,9s)-3-((3,5-Dimethyl-1H-pyrazol-4-yl)sulfonyl)-9-(pyrazin-2-yloxy)-3-azabicyclo[3.3.1]nonane]	0.69 ± 0.06 µM	–	–
